Converted amounts (≈) assume the structure as drawn. Where two headings read alike, the source gives them in different places.
Legend:
[1] = system: duodénum isolé de rat; assay: antispasmodic activity on isolated duodenum against acetylcholine; type: cell-based; details: against acetylcholine (0,2 µg/ml), read-out: DE-50 (the source's name)
Procedure: (§1) L'activité antispasmodique du produit de l'exemple 4 a été étudiée sur le duodénum isolé de rat vis à vis de l'acétvlcholine et du chlorure de baryum. Les DE-50 du produit de l'exemple 4 sont : • (i) 13 µg/ml vis à vis de l'acétycholine (0,2 µg/ml), et • (ii) 10 µg/ml vis à vis de BaCl2 (0,3 µg/ml). g/ toxicité

[2] = system: Proteus vulgaris (souche 1557); assay: bacteriostatic activity (MIC); type: cell-based; details: read-out: CMI
Procedure: (§2) Les essais pharmaceutiques qui ont été mis en oeuvre avec les produits des exemples 1 et 4, ont été résumés ci-après : • 1°/ essais avec l'exemple 1 • a/ activité bactériostatique L' α-(2-formyl-3-méthyl-cyclopentyl)-acétal- déhyde inhibe les bactéries Gram (+) et Gram (-). Les CMI (concentration minimale inhibitrice) sont les suivantes : 0,75 mg/ml sur Staphylococcus aureus Londres, 1,2 mg/ml sur Escherichia coli, et 1,5 mg/ml sur Proteus • b/ activité antispasmodique : Les DE-50 du produit de l'exemple 1 ont été déterminés • (i) in vitro sur iléon isolé de cobaye vis à vis de l'histamine : DE - 50 = 50 γ/ml; • (ii) in vivo sur l'animal vivant selon la méthode de KONZETT & ROESLLER : DE - 50 = 2,6 mg/kg par administration i.v. • c/ activité antianaphylactique : Des cobayes mâles sont sensibilisés par deux injections de 0,5 ml d'une solution d'albumine à 2 g/1, à deux jours d'intervalle. Quatre semaines aprës,le choc anaphylactique mortel est provoqué par injection i.v. de 0,2 ml d'une solution aqueuse d'ovalbumine à 2 g/1. Les produits à tester sont administrés 30 mn avant (administration i.p.) ou en même temps (administration i.v.) que l'injection provoquant ledit choc anaphylactique. Les résultats sont donnés dans le tableau I pour le produit de l'exemple 1 et la Prométhazine en tant que produit de référence : [formula] • 2°/ essais avec le produit de l'exemple 4 (constitué par un mélange de 87 % en poids d'isomère "cis-trans" et 13 % en poids d'isomère "trans-cis). • a/ activité bactériostatigue : Le produit de l'exemple 4 inhibe les bactéries Gram (+) et Gram (-). Ses CMI sont les suivantes : • 1,5 mg/m sur Staphylococcus aureus, Londres • 1 mg/ml sur Escherichia coli (souche 548) • 1,75 mg/ml sur Proteus vulgaris (souche 1557) • 2,5 mg/ml sur Klebsiella pneumoniae (souche 433), • 1 mg/ml sur Salmonella typhi murium (souche IP), • 1,5 mg/ml sur Staphylococcus aureus (souche 634), • 1,25 mg/ml sur Streptococcus (souche 1178) • 1,25 mg/ml sur Bacillus substilis, (les souches 548, 1557, 433, 634, et 1178 étant celles du catalogue de la collection du "Centre International de Distribution de Souches et d'Information sur les Types Microbiens" de . Lausanne, et la souche "IP" provenant de l'Institut Pasteur de Paris. • b/ activité bactéricide Le produit de l'exemple 4 détruit les bactéries Gram (+) et Gram (-). Ses CMB (concentration minimalebactéricide) déterminées sur milieu solide (quand moins de 0,01% de germes survivent) sont : • 1,75 mg/ml sur Staphylococcus aureus Londres • 1,5 mg/ml sur Escherichia coli (souche 548) • 2 mg/ml sur Proteus vulgaris (souche 1557) • 3 mg/ml sur Klebsiella pneumoniae (souche 433), • 1,25 mg/ml sur Salmonella typhi murium (souche I.P.) • 1,75 mg/ml sur Staphylococcus aureus (souche 634) • 2 mg/ml sur Streptococcus (souche 1178) • 2,5 mg/ml sur Bacillus substilis. • c/ activité bronchospatique Des cobayes mâles ou femelles [20 animaux (pesant 300-500 g) par dose et par produit à tester] sont exposés à un aérosol de l'exemple 4 (50 g/l en solution eau-éthanol) ou de Prométhazine (produit de référence) pendant 10 mn.

[3] = system: Salmonella typhi murium (souche IP); assay: bacteriostatic activity (MIC); type: cell-based; details: Salmonella enterica, read-out: CMI
Procedure: as §2

[4] = system: Bacillus substilis; assay: bacteriostatic activity (MIC); type: cell-based; details: read-out: CMI
Procedure: as §2

[5] = system: Klebsiella pneumoniae (souche 433); assay: bacteriostatic activity (MIC); type: cell-based; details: read-out: CMI
Procedure: as §2

[6] = system: Streptococcus (souche 1178); assay: bacteriostatic activity (MIC); type: cell-based; details: read-out: CMI
Procedure: as §2

[7] = system: Staphylococcus aureus (souche 634); assay: bacteriostatic activity (MIC); type: cell-based; details: read-out: CMI
Procedure: as §2

[8] = system: Escherichia coli (souche 548); assay: bacteriostatic activity (MIC); type: cell-based; details: read-out: CMI
Procedure: as §2

[9] = system: cobayes; assay: antianaphylactic activity: ovalbumin aerosol in sensitised animals (time to dyspnoea); type: in vivo; details: aerosol pretreatment, controls 94 ± 39
Text: Des cobayes (mâles ou femelles) sont sensibilisés à l'ovalbumine quatre semaines avant le début de l'expérience. Chaque animal est exposé à un aérosol d'ovalbumine (obtenu à partir d'un milieu aqueux contenant 50 g/1 d'ovalbumine). Le choc anaphylactique se manifeste par l'apparition d'une dyspnée intense. Les temps d'apparition de la dyspnée sont comparés entre lot témoin et lots préalablement traités avec un aérosol du produit de l'exemple 4 (50 g/1 dans une solution eau-éthanol). Les résultats donnés dans le tableau IV, montrent que le produit de l'exemple 4 […] le temps d'apparition des troubles respiratoires provoqués par l'aérosol d'ovalbumine .

[10] = system: rat femelle; assay: anti-inflammatory activity, carrageenin oedema test; type: in vivo
Text: L'activité anti-inflammatoire de l'exemple 4 a été étudiée chez le rat femelle (de poids 100 g) selon le test de l'oedème à la carragéenine.Les résultats sont donnés dans le tableau IV où l'Indométacine est utilisée comme produit de référence : […]

[11] = system: iléon isolé de cobaye; assay: antianaphylactic activity in vitro: albumin-induced contraction of ileum from sensitised animals; type: cell-based; details: for amplitude des contractions: 2 min contact, 200 µg albumin, controls 147 ± 32
Procedure: Des cobayes mâles sont sensibilises par une injection i.p. de 100 mg/kg d'ovalbumine dans un volume égal d'adjuvant de Freund. Quatre semaines après, les animaux sont sacrifiés, on recueille chaque iléon qui est placé à 33°C dans un bain de Thyrode. Une contraction est provoquée par addition d'une dose de 200 µg d'albumine au liquide de survie. L'amplitude des contractions des témoins est comparée à l'amplitude des contractions après mise en contact du produit de l'exemple 4 pendant 2 mn. Les résultats donnés dans le tableau III montrent que le produit de l'exemple 4 réduit l'amplitude des contractions de l'iléon isolé de cobaye , cette réduction étant statistiquement significative.

[12] = system: duodénum isolé de rat; assay: antispasmodic activity on isolated duodenum against barium chloride; type: cell-based; details: against BaCl2 (0,3 µg/ml), read-out: DE-50 (the source's name)
Procedure: as §1

[13] = system: Proteus vulgaris (souche 1557); assay: bactericidal activity (MBC) on solid medium; type: cell-based; details: less than 0,01% of germs survive, read-out: CMB (concentration minimalebactéricide)
Procedure: as §2

[14] = system: Salmonella typhi murium (souche I.P.); assay: bactericidal activity (MBC) on solid medium; type: cell-based; details: Salmonella enterica, less than 0,01% of germs survive, read-out: CMB (concentration minimalebactéricide)
Procedure: as §2

[15] = system: Staphylococcus aureus Londres; assay: bactericidal activity (MBC) on solid medium; type: cell-based; details: less than 0,01% of germs survive, read-out: CMB (concentration minimalebactéricide)
Procedure: as §2

[16] = system: Bacillus substilis; assay: bactericidal activity (MBC) on solid medium; type: cell-based; details: less than 0,01% of germs survive, read-out: CMB (concentration minimalebactéricide)
Procedure: as §2

[17] = system: Klebsiella pneumoniae (souche 433); assay: bactericidal activity (MBC) on solid medium; type: cell-based; details: less than 0,01% of germs survive, read-out: CMB (concentration minimalebactéricide)
Procedure: as §2

[18] = system: Streptococcus (souche 1178); assay: bactericidal activity (MBC) on solid medium; type: cell-based; details: less than 0,01% of germs survive, read-out: CMB (concentration minimalebactéricide)
Procedure: as §2

[19] = system: Staphylococcus aureus (souche 634); assay: bactericidal activity (MBC) on solid medium; type: cell-based; details: less than 0,01% of germs survive, read-out: CMB (concentration minimalebactéricide)
Procedure: as §2

[20] = system: Escherichia coli (souche 548); assay: bactericidal activity (MBC) on solid medium; type: cell-based; details: less than 0,01% of germs survive, read-out: CMB (concentration minimalebactéricide)
Procedure: as §2

[21] = acute toxicity (LD50); set-up: species or system souris; details: in vivo, mouse
Procedure: Les DL-50 du poids de l'exemple 4 chez la souris sont les suivantes : • DL-50 i.p. = 18 ± 3 mg/kg • DL-50 i.v. - 20 ± 3 mg/kg • DL-50 p.o. = 282 ± 3 mg/kg • DL-50 s.c. > 1000 mg/kg • DL-50 aérosol = 22 ± 3 mg/kg

[22] = system: cobayes; assay: histamine aerosol bronchospasm (time to apnoea); type: in vivo; details: aerosol for 10 min before histamine aerosol, controls 108 ± 18
Procedure: Les essais pharmaceutiques qui ont été mis en oeuvre avec les produits des exemples 1 et 4, ont été résumés ci-après : • 1°/ essais avec l'exemple 1 • a/ activité bactériostatique L' α-(2-formyl-3-méthyl-cyclopentyl)-acétal- déhyde inhibe les bactéries Gram (+) et Gram (-). Les CMI (concentration minimale inhibitrice) sont les suivantes : 0,75 mg/ml sur Staphylococcus aureus Londres, 1,2 mg/ml sur Escherichia coli, et 1,5 mg/ml sur Proteus • b/ activité antispasmodique : Les DE-50 du produit de l'exemple 1 ont été déterminés • (i) in vitro sur iléon isolé de cobaye vis à vis de l'histamine : DE - 50 = 50 γ/ml; • (ii) in vivo sur l'animal vivant selon la méthode de KONZETT & ROESLLER : DE - 50 = 2,6 mg/kg par administration i.v. • c/ activité antianaphylactique : Des cobayes mâles sont sensibilisés par deux injections de 0,5 ml d'une solution d'albumine à 2 g/1, à deux jours d'intervalle. Quatre semaines aprës,le choc anaphylactique mortel est provoqué par injection i.v. de 0,2 ml d'une solution aqueuse d'ovalbumine à 2 g/1. Les produits à tester sont administrés 30 mn avant (administration i.p.) ou en même temps (administration i.v.) que l'injection provoquant ledit choc anaphylactique. Les résultats sont donnés dans le tableau I pour le produit de l'exemple 1 et la Prométhazine en tant que produit de référence : [formula] • 2°/ essais avec le produit de l'exemple 4 (constitué par un mélange de 87 % en poids d'isomère "cis-trans" et 13 % en poids d'isomère "trans-cis). • a/ activité bactériostatigue : Le produit de l'exemple 4 inhibe les bactéries Gram (+) et Gram (-). […]

C=C(C=O)C1CCC(C)C1C=O (stereo not drawn) [Ex. 4, α-(2-formyl-3-méthyl-cyclopentyl)-acrylaldéhyde]
EC50 [1]: 13 µg/mL (≈ 0.0782 mM)
MIC [2]: 1750 µg/mL (≈ 10.5 mM)
MIC [3]: 1000 µg/mL (≈ 6.02 mM)
MIC [4]: 1250 µg/mL (≈ 7.52 mM)
MIC [5]: 2500 µg/mL (≈ 15 mM)
MIC [6]: 1250 µg/mL (≈ 7.52 mM)
MIC [7]: 1500 µg/mL (≈ 9.02 mM)
MIC [8]: 1000 µg/mL (≈ 6.02 mM)
Dyspnée temps d'apparition (secondes) ([9]; 1 mg/kg): 120 ± 52 secondes
Dyspnée temps d'apparition (secondes) ([9]; 10 mg/kg): 130 ± 54 secondes
inhibition par rapport aux témoins ([10]; dose 10 µg per rat): 26%
inhibition par rapport aux témoins ([10]; dose 50 µg per rat): 25%
inhibition par rapport aux témoins ([10]; dose 200 µg per rat): 41%
amplitude des contractions ([11]; 5 µg/ml): 91 ± 37
amplitude des contractions ([11]; 10 µg/ml): 52 ± 16
inhibition at 5 µg/mL ([11]; Cavia porcellus, 2 min, 5 µg/ml, read-out: variation de l'amplitude par rapport aux animaux témoins): 38%
inhibition at 10 µg/mL ([11]; Cavia porcellus, 2 min, 10 µg/ml, read-out: variation de l'amplitude par rapport aux animaux témoins): 65%
EC50 [12]: 10 µg/mL (≈ 0.0602 mM)
MBC [13]: 2000 µg/mL (≈ 12 mM)
MBC [14]: 1250 µg/mL (≈ 7.52 mM)
MBC [15]: 1750 µg/mL (≈ 10.5 mM)
MBC [16]: 2500 µg/mL (≈ 15 mM)
MBC [17]: 3000 µg/mL (≈ 18 mM)
MBC [18]: 2000 µg/mL (≈ 12 mM)
MBC [19]: 1750 µg/mL (≈ 10.5 mM)
MBC [20]: 1500 µg/mL (≈ 9.02 mM)
LD50 ([21]; inhaled or intranasal, aerosol, read-out: DL-50 aérosol): 22 ± 3 mg/kg
LD50 ([21]; ip, i.p., read-out: DL-50 i.p.): 18 ± 3 mg/kg
LD50 ([21]; iv, i.v., read-out: DL-50 i.v.): 20 ± 3 mg/kg
LD50 ([21]; po, p.o., read-out: DL-50 p.o.): 282 ± 3 mg/kg
LD50 ([21]; sc, s.c., read-out: DL-50 s.c.): > 1000 mg/kg
Apparition de l'apnée (en secondes) ([22]; 1 mg/kg): 130 ± 23 secondes
Apparition de l'apnée (en secondes) ([22]; 10 mg/kg): 169 ± 32 secondes
